In patent US20240043514A1, “NOVEL METHOD FOR PRODUCING ANTIBODIES” (TSINGHUA UNIVERSITY, priority 2017, published 2024):

Columns and labels:
PBMCs = experiment: In vitro immunization (IVI) of PBMCs, antigen-specific IgG/IgM production by ELISA; type: cell-based, human; conditions: 500 nM synthesized TLR7/8 agonist
Description: PBMCs were washed and diluted with PIV culture medium. Cell density was adjusted to 1*10^^7 cells/ml, treateder with 0.25 mM LLME for about 20 min. Discarded supernatant, and re-suspended cell with PIV culture medium. Adjusted cell density to 9*10^^5 cells/ml. […] Cultured the tissue for 7 days at 37° C., 5% CO2. Changed half of the medium and added factor cocktail on day 7. Cultured the cells for 7-21 days at 37° C., 5% CO2. Collected the supernatant on day 7, day 14, or day 21 for analysis of antibody production by ELISA, whereas the pellets are used for testing gene expression by PCR or RT-PCR. The collected cells were also tested in ELISpot assay for FACS analysis.
Exemplary IVI steps with addition of stimulate factors: • 1. Prepared PBMCs and treat them with LLME. • 2. […] Collected the cells and plate them into 96-well plate at a density of 6*10^4/well. • 4. […] The IgG and IgM level was examined with ELISA assay.
After day7 or day14 with addition of cytokines or antibody-enhancing composition and antigens, supernatants were harvested and added to antigen OVA-coated plates. After 2 hr incubation, a HRP-conjugated anti-human IgG or anti-human IgM was added, the amount of antigen-specific antibody was measured using TMB as substrate. The data represents the mean of 2 replicates; error bars represent SD. One representative data of 3 separate experiments is shown.
Plates were coated with antigen at 5 μg/ml overnight at 4° C. and washed them in PBST (containing 0.5% Tween-20). The plates were blocked with 5% BSA before addition of cell culture supernatants and horseradish peroxidase (HRP)-conjugated detection antibodies (dilutions: 1 in 2,500 for HRP-conjugated IgG-specific antibody (Jackson) and HRP-conjugated IgM-specific antibody. TMB substrates solution was used for measurement. […]
To further test effects of other cytokine or molecules on antibody production, a synthesized TLR7/8 agonist (50 nM and 500 nM) was added to the IVI system in the presence of antigen OVA (2 μg/ml).
An exemplary cytokine, IL1β, was tested. PBMCs were incubated in vitro with OVA, basic, and either some of the known stimulating factors ICOS, CD40L, TLR7/8 agonists or IL1β (in different doses) (1.5*10^^5 cell/well, 96 well plate). After 7 or 14 days, supernatants were harvested, and IgG/IgM antibody production was measured by ELISA assay.

[1] = system: Follicular dendritic cells (FDCs); experiment: Flow cytometry of follicular dendritic cells (CD3-CD19-CD21+/CD35+) in PBMCs; type: cell-based, human; conditions: high concentration of E6446 (10 uM), with TLR7/8 agonist
Description: FIGS. 12A-12G show the interactive effects between synthesized TLR7/8 agonist and TLR9 antagonist in stimulating anti-OVA antibody production in PBMCs. At low concentrations (0.02-0.2 uM), the E6446 enhanced the effect of synthesized TLR7/8, whereas at a high concentration (10 uM), E6446 inhibited this effect. Enzyme-linked immunosorbent assay (ELISA) analysis of OVA-specific antibodies of IgG (FIGS. 12A and 12D) and IgM (FIGS. 12B and 12E) responses were performed 7 days or 14 days after stimulant incubation. Cell proliferation (FIGS. 12C and 12F) was assayed by CellTiter-glo kit. Cells were harvested and tested by Flow cytometry (G). Follicular dendritic cells (FDCs) cells were gated as CD3^−CD19^−CD21^+/CD35^+ cells. Note. CD35 and CD21 are dendritic cell (DC) markers which may represent two subpopulations of DCs. The CD21-sub-type is inhibited by high concentration of E6446. […] The data represented the mean of 3 replicates; error bars represented SD. […]

TLR7/8 = experiment: Inhibition of the effect of R848 (TLR7/8 agonist) by E6446; type: cell-based
Description: (§1) E6446 dihydrochloride (E6446-HCL), a synthetic nucleic acid-sensing TLRs antagonist. It's IC50 for CpG2006 (TLR9 agonist) was in the range of 0.01-0.03 uM (data not shown). But it required 2-8 uM (a 100-fold higher concentration) to inhibit the effect of R848 (TLR7/8 agonist) (data not shown).

TLR9 = biological target: T1, TLR9 (Homo sapiens, UniProt Q9NR96); experiment: Inhibition of CpG2006 (TLR9 agonist) by E6446; type: cell-based; conditions: data not shown
T1 sequence (Q9NR96 26-1032): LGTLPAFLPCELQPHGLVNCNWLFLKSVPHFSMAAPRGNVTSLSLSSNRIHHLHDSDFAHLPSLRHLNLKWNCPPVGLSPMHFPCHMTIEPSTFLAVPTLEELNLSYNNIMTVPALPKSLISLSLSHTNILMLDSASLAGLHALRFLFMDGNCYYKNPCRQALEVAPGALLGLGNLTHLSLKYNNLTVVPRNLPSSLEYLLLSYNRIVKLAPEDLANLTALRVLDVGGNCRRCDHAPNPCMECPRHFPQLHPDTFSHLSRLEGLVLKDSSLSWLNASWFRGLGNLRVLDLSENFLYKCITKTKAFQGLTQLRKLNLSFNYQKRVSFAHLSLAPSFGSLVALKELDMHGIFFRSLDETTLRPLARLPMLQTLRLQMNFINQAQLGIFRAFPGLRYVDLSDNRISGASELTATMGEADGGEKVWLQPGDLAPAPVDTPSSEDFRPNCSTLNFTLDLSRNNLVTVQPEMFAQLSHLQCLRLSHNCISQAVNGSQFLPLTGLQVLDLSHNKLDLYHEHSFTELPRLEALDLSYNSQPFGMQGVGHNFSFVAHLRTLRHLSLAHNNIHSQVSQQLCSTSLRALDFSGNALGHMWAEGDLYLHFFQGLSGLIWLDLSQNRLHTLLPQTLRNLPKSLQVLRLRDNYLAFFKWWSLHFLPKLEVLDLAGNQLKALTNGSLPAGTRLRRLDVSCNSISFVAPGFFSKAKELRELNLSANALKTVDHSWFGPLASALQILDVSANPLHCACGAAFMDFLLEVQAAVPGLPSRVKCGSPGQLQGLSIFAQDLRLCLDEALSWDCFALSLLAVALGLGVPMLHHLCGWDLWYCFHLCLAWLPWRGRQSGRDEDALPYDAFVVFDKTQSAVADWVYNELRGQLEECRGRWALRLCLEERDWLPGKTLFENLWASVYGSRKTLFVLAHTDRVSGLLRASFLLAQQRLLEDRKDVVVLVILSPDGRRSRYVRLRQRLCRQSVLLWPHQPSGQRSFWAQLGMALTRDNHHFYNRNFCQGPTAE
Description: as §1

## Cl.Cl.c1cc(-c2nc3ccc(OCCCN4CCCC4)cc3o2)ccc1OCCCN1CCCC1 [E6446 dihydrochloride]
PBMCs; E6446 0.02 uM and 0.2 uM, 14-day cultures, OVA+IL2+IL21
  effect of low concentration E6446 on IgG production with TLR7/8 agonist: promotes the effects of TLR7/8 agonist on antibody IgG production
PBMCs; E6446 10 uM, 7-day and 14-day cultures
  effect of high concentration E6446 on IgG and IgM production with TLR7/8 agonist: reverses the effects of TLR7/8 agonist
[1]
  CD21-sub-type of dendritic cells: inhibited
TLR7/8; TLR7/8 versus TLR9
  concentration to inhibit R848 relative to IC50 for CpG2006: 100 fold
TLR7/8; data not shown
  concentration required to inhibit the effect of R848 (TLR7/8 agonist): 2 to 8 µM
TLR9
  IC50: 10 to 30 nM
